Results from patent US8101634B2, “Bicyclic compounds and use as antidiabetics” (GlaxoSmithKline LLC, priority 2006, dated 2012).

Key:
C57BI6/J mice = test: Oral glucose tolerance test (OGTT) in normal mice one hour after oral administration; format: in vivo; settings: for glucose area-under-the curve (AUC) over the 120 minute time course, result in words: OGTT in mice, vs vehicle; for % of Vehicle (glucose cAUC): OGTT one hour after p.o. dosing; for % of Vehicle (glucose cAUC) / Glucose cAUC (baseline corrected glucose area under the curve during OGTT): Examples 30 mg/kg, vildagliptin 10 mg/kg, n=10; for Glucose cAUC (baseline corrected glucose area under the curve during OGTT): fasted male C57BI6/J mice, OGTT 2 g dextrose/kg one hour after p.o. dosing, mean ± s.e.m., 120 min
Description: In Vivo Effects of GPR119 Agonists on Incretin Hormone Release and Glucose Homeostasis in Mice
Vehicle or compounds were delivered orally via a gavage needle (p.o. at 10 mls/kg). The effect of the GPR119 agonists on glucose homeostasis was assessed by conducting an oral glucose tolerance test (OGTT; 2 g dextrose per kg body weight) one hour after administration of vehicle or test compounds. Whole blood glucose levels were determined prior to compound administration, immediately before and 10, 20, 30, 45, 60, 90 and 120 after glucose administration, using a Glucometer (Freestyle, Therasense).
Table 1 summarizes the glucose excursions during the OGTT as the average baseline corrected glucose area under the curve (cAUC; ±s.e.m.) from the animals in each treatment group.

C57/BI6 mice = test: Plasma total GLP-1 and total GIP in normal mice one hour after oral administration; format: in vivo; settings: for total circulating GIP levels, result in words / total circulating GLP-1 levels, result in words: 1 hr after giving the compound, compared to vehicle; for Total GIP (plasma) / Total GLP-1 (plasma) / Total GIP, fold change vs. Vehicle / Total GLP-1, fold change vs. Vehicle: C56BI6/J mice, one hour following oral administration of 30 mg/kg; for Total GIP (plasma) / Total GLP-1 (plasma): fasted, mean ± s.e.m.
Description: GPR119 Agonists Elevate GIP and GLP-1 in Normal Mice
Male C57/BI6 mice 10 weeks of age were fasted for 15 hrs and randomly grouped (n=6-10) to receive vehicle (0.5% HPMC/0.1% Tween) or a GPR119 agonists of the present invention at 30 mg/kg. 1 hr after compound administration blood was collected by cardiac-stick following iso-fluorane aneasthesia. Blood for analysis of plasma levels of total GLP-1 and total GIP was placed in a K2-EDTA containing tubes supplemented with a DPP-IV inhibitor to prevent degradation of the incretin hormones (30 µM final concentration). Total GLP-1 was determined using an assay from Meso Scale Discovery (Gaithersburg, Md.). GIP was determined using an ELISA assay from Linco (St. Charles, Mo.). For each treatment group Table 2 summarizes the average plasma levels of total GLP-1 (±s.e.m.) from the number of animals in each treatment group as indicated.
Table 3 summarizes the average plasma levels of total GIP (±s.e.m.) from the number of animals in each treatment group as indicated.

SMILES | glucose area-under-the curve (AUC) over the 120 minute time course, result in words (C57BI6/J mice) | % of Vehicle (glucose cAUC) (C57BI6/J mice) | Glucose cAUC (baseline corrected glucose area under the curve during OGTT) (C57BI6/J mice) | total circulating GIP levels, result in words (C57/BI6 mice) | total circulating GLP-1 levels, result in words (C57/BI6 mice) | Total GIP (plasma) (C57/BI6 mice) | Total GLP-1 (plasma) (C57/BI6 mice) | Total GIP, fold change vs. Vehicle (C57/BI6 mice) | Total GLP-1, fold change vs. Vehicle (C57/BI6 mice)
CC(C)OC(=O)N1CCC(COc2ccc(-c3ccc(S(C)(=O)=O)cc3F)nc2)CC1 [Example 77, 1-Methylethyl 4-[({6-[2-fluoro-4-(methylsulfonyl)phenyl]-3-pyridinyl}oxy)methyl]-1-piperidinecarboxylate] | significantly lowered | 21% | 6884 ± 694 mg·min/dL | increase | increase | 182 ± 12 pg/mL | 7.5 ± 2.0 pg/mL | 2.2 | 3.3
CC(C)c1noc(N2CCC(COc3ccc(-c4ccc(S(C)(=O)=O)cc4F)nc3)CC2)n1 [Example 83, 2-[2-Fluoro-4-(methylsulfonyl)phenyl]-5-[({1-[3-(1-methylethyl)-1,2,4-oxadiazol-5-yl]-4-piperidinyl}methyl)oxy]pyridine] | significantly lowered | 23% | 6754 ± 286 mg·min/dL | increase | increase | 275 ± 29 pg/mL | 6.8 ± 1.8 pg/mL | 3.3 | 3.0
